# ChEMBL document CHEMBL3885861, “Open TG-GATES”
# Species: Rattus norvegicus
# Assay: Open TG-GATES - Regimen: Single
# Assay type: toxicity, organism-based, Sprague-Dawley
# Design: regimen Single, gender Male, age 6 weeks
# Details: in vivo, po, 100 mg/kg, route gavage, dose level Middle; for APTT / Bas / Eos / Fbg / Hb / Ht / Lym / MCH / MCHC / MCV / Mono / Neu / PT / Plat / RBC / Ret / WBC: tissue Blood; for KIDNEY_L / KIDNEY_R / KIDNEY_TOTAL: tissue Kidney; for LIVER: tissue Liver; for A/G / ALP / ALT / AST / BUN / CRE / Ca / Cl / DBIL / GLC / IP / K / LDH / Na / PL / RALB / TBIL / TC / TG / TP / gamma-GTP: tissue Plasma
smiles,measurement,setting,value
CCc1oc2ccccc2c1C(=O)c1cc(I)c(O)c(I)c1 [BENZIODARONE],TERMINAL_BW,3 h,215.5 g
same,APTT,3 h,16.9 s
same,Bas,3 h,0%
same,Eos,3 h,0.6%
same,Fbg,3 h,189.8 mg/dL
same,Hb,3 h,13.1 g/dL
same,Ht,3 h,39.1%
same,Lym,3 h,75.8%
same,MCH,3 h,21.8 pg
same,MCHC,3 h,33.6%
same,MCV,3 h,64.9 fL
same,Mono,3 h,8.8%
same,Neu,3 h,15%
same,PT,3 h,11.9 s
same,Plat,3 h,118.7 x10_4/uL
same,RBC,3 h,603 x10_4/ul
same,Ret,3 h,9.2%
same,WBC,3 h,94.2 x10_2/uL
same,KIDNEY_L,3 h,1 g
same,KIDNEY_R,3 h,1 g
same,KIDNEY_TOTAL,3 h,2 g
same,LIVER,3 h,10.2 g
same,A/G,3 h,2.1
same,ALP,3 h,966.8 IU/L
same,ALT,3 h,36.6 IU/L
same,AST,3 h,69 IU/L
same,BUN,3 h,12.6 mg/dL
same,CRE,3 h,0.5 mg/dL
same,Ca,3 h,10.5 mg/dL
same,Cl,3 h,102.4 meq/L
same,DBIL,3 h,0.02 mg/dL
same,GLC,3 h,201.2 mg/dL
same,IP,3 h,9.3 mg/dL
same,K,3 h,4.4 meq/L
same,LDH,3 h,110 IU/L
same,Na,3 h,140.4 meq/L
same,PL,3 h,128.6 mg/dL
same,RALB,3 h,3.5 g/dL
same,TBIL,3 h,0.5 mg/dL
same,TC,3 h,73.8 mg/dL
same,TG,3 h,52.4 mg/dL
same,TP,3 h,5.2 g/dL
same,gamma-GTP,3 h,1.8 IU/L
same,TERMINAL_BW,6 h,210.6 g
same,APTT,6 h,16.8 s
same,Bas,6 h,0%
same,Eos,6 h,1%
same,Fbg,6 h,217.8 mg/dL
same,Hb,6 h,13.6 g/dL
same,Ht,6 h,40.7%
same,Lym,6 h,73.2%
same,MCH,6 h,21.7 pg
same,MCHC,6 h,33.3%
same,MCV,6 h,65.1 fL
same,Mono,6 h,9.2%
same,Neu,6 h,16.4%
same,PT,6 h,11.8 s
same,Plat,6 h,109.1 x10_4/uL
same,RBC,6 h,625.8 x10_4/ul
same,Ret,6 h,10.1%
same,WBC,6 h,113.1 x10_2/uL
same,KIDNEY_L,6 h,0.9 g
same,KIDNEY_R,6 h,0.9 g
same,KIDNEY_TOTAL,6 h,1.9 g
same,LIVER,6 h,9.7 g
same,A/G,6 h,2
same,ALP,6 h,826.8 IU/L
same,ALT,6 h,32.6 IU/L
same,AST,6 h,61.2 IU/L
same,BUN,6 h,12.4 mg/dL
same,CRE,6 h,0.5 mg/dL
same,Ca,6 h,10.7 mg/dL
same,Cl,6 h,103.2 meq/L
same,DBIL,6 h,0.02 mg/dL
same,GLC,6 h,182.4 mg/dL
same,IP,6 h,9.9 mg/dL
same,K,6 h,4.6 meq/L
same,LDH,6 h,108.4 IU/L
same,Na,6 h,140.4 meq/L
same,PL,6 h,133 mg/dL
same,RALB,6 h,3.6 g/dL
same,TBIL,6 h,0.3 mg/dL
same,TC,6 h,74.4 mg/dL
same,TG,6 h,77.8 mg/dL
same,TP,6 h,5.4 g/dL
same,gamma-GTP,6 h,1.6 IU/L
same,TERMINAL_BW,9 h,209.5 g
same,APTT,9 h,16.8 s
same,Bas,9 h,0%
same,Eos,9 h,1%
same,Fbg,9 h,202.2 mg/dL
same,Hb,9 h,13.6 g/dL
same,Ht,9 h,40.8%
same,Lym,9 h,76.4%
same,MCH,9 h,21.3 pg
same,MCHC,9 h,33.3%
same,MCV,9 h,63.9 fL
same,Mono,9 h,7.4%
same,Neu,9 h,15.4%
same,PT,9 h,12.4 s
same,Plat,9 h,121.3 x10_4/uL
same,RBC,9 h,638.4 x10_4/ul
same,Ret,9 h,8.2%
same,WBC,9 h,86.5 x10_2/uL
same,KIDNEY_L,9 h,1 g
same,KIDNEY_R,9 h,0.9 g
same,KIDNEY_TOTAL,9 h,1.9 g
same,LIVER,9 h,8.9 g
same,A/G,9 h,2.3
same,ALP,9 h,766.6 IU/L
same,ALT,9 h,29.8 IU/L
same,AST,9 h,63.4 IU/L
same,BUN,9 h,13 mg/dL
same,CRE,9 h,0.5 mg/dL
same,Ca,9 h,10.3 mg/dL
same,Cl,9 h,105.2 meq/L
same,DBIL,9 h,0.07 mg/dL
same,GLC,9 h,194.8 mg/dL
same,IP,9 h,10.9 mg/dL
same,K,9 h,4.5 meq/L
same,LDH,9 h,108.8 IU/L
same,Na,9 h,142.4 meq/L
same,PL,9 h,122.8 mg/dL
same,RALB,9 h,3.7 g/dL
same,TBIL,9 h,0.3 mg/dL
same,TC,9 h,68.2 mg/dL
same,TG,9 h,56.6 mg/dL
same,TP,9 h,5.4 g/dL
same,gamma-GTP,9 h,0.6 IU/L
same,TERMINAL_BW,24 h,228.7 g
same,APTT,24 h,17.4 s
same,Bas,24 h,0%
same,Eos,24 h,1.2%
same,Fbg,24 h,196.8 mg/dL
same,Hb,24 h,13.2 g/dL
same,Ht,24 h,39.3%
same,Lym,24 h,73.8%
same,MCH,24 h,22 pg
same,MCHC,24 h,33.7%
same,MCV,24 h,65.4 fL
same,Mono,24 h,9.6%
same,Neu,24 h,15.6%
same,PT,24 h,12.1 s
same,Plat,24 h,113.1 x10_4/uL
same,RBC,24 h,601.2 x10_4/ul
same,Ret,24 h,9%
same,WBC,24 h,106.2 x10_2/uL
same,KIDNEY_L,24 h,1 g
same,KIDNEY_R,24 h,1 g
same,KIDNEY_TOTAL,24 h,2 g
same,LIVER,24 h,11.9 g
same,A/G,24 h,2.1
same,ALP,24 h,1017.4 IU/L
same,ALT,24 h,36.8 IU/L
same,AST,24 h,66 IU/L
same,BUN,24 h,17.8 mg/dL
same,CRE,24 h,0.5 mg/dL
same,Ca,24 h,10.6 mg/dL
same,Cl,24 h,104.8 meq/L
same,DBIL,24 h,0.006 mg/dL
same,GLC,24 h,196 mg/dL
same,IP,24 h,7.6 mg/dL
same,K,24 h,4.6 meq/L
same,LDH,24 h,87.6 IU/L
same,Na,24 h,140.8 meq/L
same,PL,24 h,129 mg/dL
same,RALB,24 h,3.7 g/dL
same,TBIL,24 h,0.4 mg/dL
same,TC,24 h,65.8 mg/dL
same,TG,24 h,84 mg/dL
same,TP,24 h,5.5 g/dL
same,gamma-GTP,24 h,1 IU/L
